# Measurements as given in US5143923A, “Benzoisothiazole- and benziosoxazole-3-carboxamides” (Hoechst-Roussel Pharmaceuticals Inc., priority 1991, dated 1992).
# Where a name gives a salt, the structure may show the parent alone. Read-outs that look alike come from different tables or passages of the source.
# Legend:
# [1] = test system: apomorphine-induced climbing; experiment: Inhibition of apomorphine-induced climbing, climbing mice assay (antipsychotic activity); type: in vivo, CK-1 male mice; details: for ED50: Mus musculus, ip, read-out: Antipsychotic Activity ED50
# Description: The subject CK-1 male mice (23-27 grams) are group-housed under standard laboratory conditions. The mice are individually placed in wire mesh stick cages (4"×4"10") and are allowed one hour for adaptation and exploration of the new environment.
# For evaluation of climbing, 3 readings are taken at 10, 20 and 30 minutes after apomorphine administration according to the following scale: […]
# Mice consistently climbing before the injection of apormorphine are discarded.
# With full-developed apomorphine climbing, the animals are hanging onto the cage walls, rather motionless, over longer periods of time. By contrast, climbs due to mere motor stimulation usually only last a few seconds.
# The climbing scores are individually totaled (maximal score; 6 per mouse over 3 readings) and the total score of the control group (vehicle intraperitioneally-apomorphine subcutaneously) is set to 100%.
# [2] = test system: apomorphine induced stereotypy; experiment: Inhibition of apomorphine induced stereotypy assay (extrapyramidal side effect potential); type: in vivo, male Wistar rats
# Description: Potential for undersible extrapyramidal side effect activity is determined in the inhibition of apormorphine stereotypy assay by methods similar to those described by N. E. Anden, et al., J. Pharma.
# Drugs are prepared using distilled water and, if insoluble, a suitable surfactant is added. The route of administration may be varied and the dosage volume is 10 ml/kg. For a primary screen, a group size of six is used. Drug is administered one hour prior to scoring and the animals are placed in individual clear plastic cages (24×14×13 cm). The control group receives vehicle. Apomorphine hydrochloride solution is prepared at a concentration of 15 mg/10 ml in a 0.03% ascorbic acid stock solution (30 mg of ascorbic acid in 100 ml of 1% saline) to increase the stability of the apomorphine hydrochloride while in solution. […] Fifty minutes after drug dosing, stereotypic behavior is noted. Stereotypic activity is defined as sniffing, licking or chewing behavior that occurs in a repetitive manner and is rated as follows: Constant sniffing, licking or chewing without interruption; the animal is considered protected if this behavior is interrupted.
# The percent effectiveness of a drug is determined by the number of animals protected in each group.
# A dose-response is run in the same manner as a primary screen except that a group size of 10 is used and the animals are dosed in a randomized manner. One group receives vehicle. ED50 for stereotypy are calculated by means of probit analysis.
# [3] = Rattus norvegicus, read-out: % Inhibition of apomorphine induced stereotypy
# [4] = mice, compound intraperitoneally 30 min before apomorphine 1.5 mg/kg s.c.
compound,measurement,setting,value
"O=C(CCCN1CCC(O)(c2ccc(Cl)cc2)CC1)c1ccc(F)cc1 [Haloperidol, reference compound]",ED50,[1],0.11 mg/kg
same,inhibition at 0.2 mg/kg,[2]; [3],50%
"CN(CCCCN1CCN(c2nsc3ccccc23)CC1)C(=O)c1nsc2ccccc12 [N-Methyl-N-[4-(1-(1,2-benzisothiazol-3-yl)-4-piperazinyl)butyl]-1,2-benzisothiazole-3-carboxamide hydrochloride]",inhibition at 40 mg/kg,[2]; [3],100%
"COc1ccccc1N1CCN(CCCCN(C)C(=O)c2nsc3ccccc23)CC1 [N-Methyl-N-[4-(1-(2-methoxyphenyl)-4-piperazinyl)butyl]-1,2-benzisothiazole-3-carboxamide dihydrochloride hemihydrate]",Antipsychotic Activity ED50,"[1]; mice, compound intraperitoneally 30 min before apomorphine 1.5 mg/kg s.c., dihydrochloride hemihydrate",4.2 mg/kg
same,Antipsychotic Activity ED50,"[1]; mice, compound intraperitoneally 30 min before apomorphine 1.5 mg/kg s.c., listed as N-methyl-N-[4-(1-(2-methoxyphenyl)-4-piperazinyl)butyl-1,2-benzisothiazole-3-car, dihydrochloride hemihydrate",9.6 mg/kg
same,inhibition at 39.2 mg/kg,"[2]; Rattus norvegicus, rats, dose 39.2 mg/kg body wt.",50%
"CN(CCCCN1CCN(c2csc3cc(F)ccc23)CC1)C(=O)c1nsc2ccccc12.Cl [N-Methyl-N-[4-(1-(6-fluorobenzo[b]thiophen-3-yl)-4-piperazinyl)butyl]-1,2-benzisothiazol-3-carboxamide hydrochloride]",ED50,[1],4.5 mg/kg
same,inhibition at 40 mg/kg,[2]; [3],100%
"CN(CCCCN1CCN(c2csc3cc(F)ccc23)CC1)C(=O)c1noc2ccccc12.Cl [N-Methyl-N-[4-(1-(6-fluorobenzo[b]thiophen-3-yl)-4-piperazinyl)butyl]-1,2-benzisoxazole-3-carboxamide hydrochloride]",ED50,[1],5 mg/kg
same,inhibition at 52 mg/kg,[2]; [3],50%
"COc1ccccc1N1CCN(CCNC(=O)c2nsc3ccccc23)CC1.Cl.Cl [N-[2-(1-(2-Methoxyphenyl)-4-piperazinyl)ethyl]-1,2-benzisothiazole-3-carboxamide dihydrochloride]",ED50,[1],6.3 mg/kg
same,inhibition at 51.8 mg/kg,[2]; [3],50%
"Cl.O=C(NCCN1CCN(c2csc3cc(F)ccc23)CC1)c1noc2ccccc12 [N-[2-(1-(6-fluorobenzo[b]thiophen-3-yl)-4-piperazinyl)ethyl]-1,2-benzisoxazole-3-carboxamide hydrochloride]",ED50,[1],4.9 mg/kg
same,inhibition at 80 mg/kg,[2]; [3],0%
"Cl.O=C(NCCCCN1CCN(c2nsc3ccccc23)CC1)c1nsc2ccccc12 [N-[4-(1-(1,2-Benzisothiazol-3-yl)-4-piperazinyl)butyl]-1,2-benzisothiazole-3-carboxamide hydrochloride]",ED50,[1],8.3 mg/kg
same,inhibition at 40 mg/kg,[2]; [3],17%
"CCN1CCCC1CNC(=O)c1cc(S(N)(=O)=O)ccc1OC (centres unmarked) [Sulpiride, reference compound]",ED50,[1]; [4],4.5 mg/kg
"CSc1ccc2c(c1)N(CCC1CCCCN1C)c1ccccc1S2 (centres unmarked) [thioridazine, reference compound]",inhibition at 16 mg/kg,"[2]; Rattus norvegicus, rats, dose 16 mg/kg body wt.",50%
"N-[2-(1-(4-Fluorobenzoyl)-4-piperidinyl)ethyl]-1,2-benzisothiazole-3-carboxamide hydrochloride hemihydrate",Antipsychotic Activity ED50,[1]; [4],3.6 mg/kg
same,% Inhibition of apomorphine induced stereotypy,"[2]; rats, dose 20 mg/kg body wt.",67%
